Legend:
[1] = Free concentration and protein binding in spiked human serum samples (Table S5); settings: for fraction unbound: human, serum, PB
Procedure: Subsequently, samples were mixed for 10 s, stored in an ultrasonic bath for 10 min at 40 °C, then centrifuged at 8000× g for 5 min. Next, 100 µL of the resulting supernatant was further diluted with 500 µL water with 0.1% formic acid. […] Details are described in the Supplementary Materials (Figures S1–S3).
Table S5. […] In order to evaluate the
(a) Spiked human serum samples of 14 patients (8 critically ill and 6 non-critically ill) after calibration with sheep serum.
(b) Spiked human serum samples of 9 critically ill patients and 6 healthy volunteers after calibration with human serum.

[2] = Stability of dalbavancin in human serum; settings: serum samples, HPLC-UV
Excerpt: For stability testing, two samples were thawed out and subsequently analyzed. Stability was defined by the time for which samples remained a concentration of > 90% of their baseline concentrations.

[3] = S5b, serum of 29 (healthy volunteer) spiked 50 mg/L, measured c 52.0 mg/L, calibration with human serum
[4] = S5b, serum of 29 (healthy volunteer) spiked 200 mg/L, measured c 207 mg/L, calibration with human serum
[5] = S5b, serum of patient 16 (critically ill) spiked 50 mg/L, measured c 56.7 mg/L, calibration with human serum
[6] = S5b, serum of patient 17 (critically ill) spiked 200 mg/L, measured c 222 mg/L, calibration with human serum
[7] = S5b, serum of patient 18 (critically ill) spiked 50 mg/L, measured c 57.6 mg/L, calibration with human serum
[8] = S5b, serum of patient 18 (critically ill) spiked 200 mg/L, measured c 242 mg/L, calibration with human serum
[9] = S5b, serum of patient 19 (critically ill) spiked 50 mg/L, measured c 51.1 mg/L, calibration with human serum
[10] = S5b, serum of patient 19 (critically ill) spiked 200 mg/L, measured c 197 mg/L, calibration with human serum
[11] = S5b, serum of patient 20 (critically ill) spiked 50 mg/L, measured c 54.5 mg/L, calibration with human serum
[12] = S5b, serum of patient 20 (critically ill) spiked 200 mg/L, measured c 254 mg/L, calibration with human serum
[13] = S5b, serum of patient 21 (critically ill) spiked 50 mg/L, measured c 55.2 mg/L, calibration with human serum
[14] = S5b, serum of patient 23 (critically ill) spiked 50 mg/L, measured c 56.0 mg/L, calibration with human serum

SMILES: CN[C@H]1C(=O)N[C@@H]2Cc3ccc(cc3)Oc3cc4cc(c3O[C@@H]3O[C@H](C(=O)O)[C@@H](O)[C@H](O)[C@H]3NC(=O)CCCCCCCCC(C)C)Oc3ccc(cc3Cl)[C@@H](O)[C@@H]3NC(=O)[C@H](NC(=O)[C@@H]4NC(=O)[C@@H](NC2=O)c2cc(cc(O)c2Cl)Oc2cc1ccc2O)c1ccc(O)c(c1)-c1c(O[C@H]2O[C@H](CO)[C@@H](O)[C@H](O)[C@@H]2O)cc(O)cc1[C@@H](C(=O)NCCCN(C)C)NC3=O [dalbavancin, Dalbavancin]
- fc ([1]; S5b, serum of 28 (healthy volunteer) spiked 200 mg/L, measured c 199 mg/L, calibration with human serum): 4.8 mg/L
- PB [1, 3]: 97%
- fc [1, 3]: 1.4 mg/L
- PB [1, 4]: 98%
- fc [1, 4]: 4.6 mg/L
- fc ([1]; S5b, serum of patient 15 (critically ill) spiked 50 mg/L, measured c 56.7 mg/L, Nanosep SPE, HPLC-UV, calibration with human serum): 1.9 mg/L
- fc ([1]; S5b, serum of patient 15 (critically ill) spiked 200 mg/L, measured c 239 mg/L, calibration with human serum): 9.8 mg/L
- fc [1, 5]: 1.8 mg/L
- fc ([1]; S5b, serum of patient 16 (critically ill) spiked 200 mg/L, measured c 233 mg/L, calibration with human serum): 12.1 mg/L
- fc ([1]; S5b, serum of patient 17 (critically ill) spiked 50 mg/L, measured c 52.5 mg/L, calibration with human serum): < 1.0 mg/L
- fc [1, 6]: 8.3 mg/L
- fc [1, 7]: 1.3 mg/L
- fc [1, 8]: 8.8 mg/L
- fc [1, 9]: 1.2 mg/L
- fc [1, 10]: 7.1 mg/L
- fc [1, 11]: 1.7 mg/L
- fc [1, 12]: 8.2 mg/L
- fc [1, 13]: 1.6 mg/L
- fc ([1]; S5b, serum of patient 21 (critically ill) spiked 200 mg/L, measured c 230 mg/L, calibration with human serum): 11.0 mg/L
- fc ([1]; S5b, serum of patient 22 (critically ill) spiked 50 mg/L, measured c 59.8 mg/L, calibration with human serum): 2.5 mg/L
- fc ([1]; S5b, serum of patient 22 (critically ill) spiked 200 mg/L, measured c 266 mg/L, calibration with human serum): 16.5 mg/L
- fc [1, 14]: 2.2 mg/L
- fc ([1]; S5b, serum of patient 23 (critically ill) spiked 200 mg/L, measured c 233 mg/L, calibration with human serum): 9.6 mg/L
- fraction unbound [1]: 0.05
- fraction unbound ([1]; S5a, serum of patient 1 (critically ill) spiked 50 mg/L, measured c 53.5 mg/L, calibration with sheep serum): 0.03
- fraction unbound ([1]; S5a, serum of patient 1 (critically ill) spiked 200 mg/L, measured c 201 mg/L, calibration with sheep serum): 0.04
- fraction unbound ([1]; S5a, serum of patient 2 (critically ill) spiked 50 mg/L, measured c 53.6 mg/L, calibration with sheep serum): 0.03
- fraction unbound ([1]; S5a, serum of patient 3 (critically ill) spiked 200 mg/L, measured c 209 mg/L, calibration with sheep serum): 0.04
- fraction unbound ([1]; S5a, serum of patient 4 (critically ill) spiked 50 mg/L, measured c 54.2 mg/L, calibration with sheep serum): 0.03
- fraction unbound ([1]; S5a, serum of patient 4 (critically ill) spiked 200 mg/L, measured c 212 mg/L, calibration with sheep serum): 0.04
- fraction unbound ([1]; S5a, serum of patient 5 (critically ill) spiked 50 mg/L, measured c 53.0 mg/L, calibration with sheep serum): 0.04
- fraction unbound ([1]; S5a, serum of patient 6 (critically ill) spiked 50 mg/L, measured c 50.4 mg/L, calibration with sheep serum): 0.03
- fraction unbound ([1]; S5a, serum of patient 8 (critically ill) spiked 50 mg/L, measured c 54.3 mg/L, calibration with sheep serum): 0.03
- fraction unbound ([1]; S5a, serum of patient 8 (critically ill) spiked 200 mg/L, measured c 201 mg/L, calibration with sheep serum): 0.04
- fraction unbound ([1]; S5a, serum of patient 9 (non-critically ill) spiked 200 mg/L, measured c 177 mg/L, calibration with sheep serum): 0.02
- fraction unbound ([1]; S5a, serum of patient 10 (non-critically ill) spiked 200 mg/L, measured c 180 mg/L, calibration with sheep serum): 0.02
- fraction unbound ([1]; S5a, serum of patient 11 (non-critically ill) spiked 200 mg/L, measured c 177 mg/L, calibration with sheep serum): 0.02
- fraction unbound ([1]; S5a, serum of patient 12 (non-critically ill) spiked 200 mg/L, measured c 195 mg/L, calibration with sheep serum): 0.02
- fraction unbound ([1]; S5a, serum of patient 13 (non-critically ill) spiked 50 mg/L, measured c 53.0 mg/L, calibration with sheep serum): 0.02
- fraction unbound ([1]; S5a, serum of patient 13 (non-critically ill) spiked 200 mg/L, measured c 214 mg/L, calibration with sheep serum): 0.03
- fraction unbound ([1]; S5a, serum of patient 14 (non-critically ill) spiked 50 mg/L, measured c 50.0 mg/L, calibration with sheep serum): 0.02
- fraction unbound ([1]; S5a, serum of patient 14 (non-critically ill) spiked 200 mg/L, measured c 208 mg/L, calibration with sheep serum): 0.02
- fraction unbound ([1]; S5b, serum of 24 (healthy volunteer) spiked 50 mg/L, measured c 46.1 mg/L, calibration with human serum): 0.03
- fraction unbound ([1]; S5b, serum of 24 (healthy volunteer) spiked 200 mg/L, measured c 184 mg/L, calibration with human serum): 0.02
- fraction unbound ([1]; S5b, serum of 25 (healthy volunteer) spiked 50 mg/L, measured c 45.8 mg/L, calibration with human serum): 0.03
- fraction unbound ([1]; S5b, serum of 25 (healthy volunteer) spiked 200 mg/L, measured c 197 mg/L, calibration with human serum): 0.03
- fraction unbound ([1]; S5b, serum of 26 (healthy volunteer) spiked 50 mg/L, measured c 52.6 mg/L, calibration with human serum): 0.03
- fraction unbound ([1]; S5b, serum of patient 15 (critically ill) spiked 50 mg/L, measured c 56.7 mg/L, calibration with human serum): 0.03
- fraction unbound [1, 5]: 0.04
- fraction unbound [1, 6]: 0.04
- fraction unbound [1, 7]: 0.03
- fraction unbound [1, 8]: 0.04
- fraction unbound [1, 9]: 0.02
- fraction unbound [1, 10]: 0.04
- fraction unbound [1, 11]: 0.03
- fraction unbound [1, 12]: 0.04
- fraction unbound [1, 13]: 0.03
- fraction unbound [1, 14]: 0.04
- stability time (>90% of baseline concentration) ([2]; frozen at −20 °C): at least 1 month
- stability time (>90% of baseline concentration) ([2]; frozen at −80 °C): at least 12 months
- stability time (>90% of baseline concentration) ([2]; refrigerated (2–8 °C)): at least 96 h
- stability time (>90% of baseline concentration) ([2]; room temperature): ≥ 48 h
